This note sets out measurements from PubChem BioAssay AID492982 (Sanford-Burnham Center for Chemical Genomics, 2010).

The target of this experiment is Type-1 angiotensin II receptor (Homo sapiens) (UniProt P30556). The experiment is described as follows: AT1 receptor agonists, beta-arrestin recruitment, SAR follow-up, selectivity assay for APJ agonist project, cell-based, CHO-K1 PathHunter, luminescence, set 3 (AID 492982). The settings on record: CHO-K1 AGTR1 PathHunter beta-arrestin, 90 min. Background: Activated receptors often draw arrestin, which recruitment assays turn into a signal.

Active and inactive are the calls of the source.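 The calls were made as follows: active = mean EC50 below 10 µM; inactive = the rest.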

Type-1 angiotensin II receptor (Homo sapiens), sequence (P30556 whole entry, looked up): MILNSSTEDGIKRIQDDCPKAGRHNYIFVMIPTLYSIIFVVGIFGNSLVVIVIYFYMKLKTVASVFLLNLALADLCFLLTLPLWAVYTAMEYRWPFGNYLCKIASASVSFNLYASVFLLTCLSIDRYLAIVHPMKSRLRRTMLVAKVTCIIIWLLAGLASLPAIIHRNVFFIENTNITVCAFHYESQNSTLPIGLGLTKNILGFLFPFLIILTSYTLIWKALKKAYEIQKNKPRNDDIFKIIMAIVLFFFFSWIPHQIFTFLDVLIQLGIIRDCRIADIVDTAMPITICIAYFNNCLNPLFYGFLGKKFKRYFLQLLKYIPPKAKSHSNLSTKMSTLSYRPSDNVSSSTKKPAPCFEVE

Turning to `CC1=CC(=O)C(C(C)C)=C/C1=N/OS(=O)(=O)c1ccc(C#N)cc1`, the EC50 (usually the concentration at which the effect is half-maximal) was > 79 µM (inactive).

Consider `CC1=CC(=O)C(C(C)C)=C/C1=N/OS(=O)(=O)c1ccc(C(C)C)cc1`, for which the EC50 is > 79 µM (inactive). As for `CC1=CC(=O)C(C(C)C)=C/C1=N/OS(=O)(=O)c1ccc(F)cc1`, the figure is > 79 µM (inactive).
